Test results: PubChem BioAssay (NCI)
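Where inhibition never reached the appropriate level, the endpoint shown equals the highest concentration tested. Otherwise, values were interpolated linearly from a five-concentration, 48-hour dose response in 96-well plates. The concentration for full growth arrest is given as TGI.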

Legend:
Experiment in all cases: NCI tumour cell line growth inhibition, 48 h
[1] = test system: OVCAR-4 ovarian
[2] = test system: SNB-19 CNS
[3] = test system: U251 CNS
[4] = test system: RPMI-8226 leukemia
[5] = test system: HT29 colon
[6] = test system: K-562 leukemia
[7] = test system: MOLT-4 leukemia
[8] = test system: HOP-62 NSCLC
[9] = test system: SK-MEL-5 melanoma
[10] = test system: SF-539 CNS
[11] = test system: NCI-H522 lung
[12] = test system: M19-MEL melanoma
[13] = test system: SW-620 colon
[14] = test system: IGROV1 ovarian
[15] = test system: SR leukemia
[16] = test system: DMS 114 small cell lung
[17] = test system: OVCAR-3 ovarian
[18] = test system: NCI-H23 lung
[19] = test system: CCRF-CEM leukemia
[20] = test system: UACC-62 melanoma
[21] = test system: HCT-15 colon
[22] = test system: SF-268 CNS
[23] = test system: A549 NSCLC
[24] = test system: NCI-H226 lung
[25] = test system: TK-10 renal
[26] = test system: NCI-H460 lung
[27] = test system: ACHN renal
[28] = test system: HOP-18 NSCLC
[29] = test system: RXF 393 renal
[30] = test system: CAKI-1 renal
[31] = test system: M14 melanoma
[32] = test system: OVCAR-5 ovarian
[33] = test system: HCT-116 colon
[34] = test system: SK-MEL-2 melanoma
[35] = test system: DLD-1 colon
[36] = test system: 786-0 renal
[37] = test system: KM12 colon
[38] = test system: MALME-3M melanoma
[39] = test system: UACC-257 melanoma
[40] = test system: SF-295 CNS
[41] = test system: SNB-78 CNS
[42] = test system: SK-MEL-28 melanoma
[43] = test system: HOP-92 NSCLC
[44] = test system: LXFL 529 NSCLC
[45] = test system: UO-31 renal
[46] = test system: OVCAR-8 ovarian
[47] = test system: HL-60(TB) leukemia
[48] = test system: LOX IMVI melanoma
[49] = test system: EKVX NSCLC
[50] = test system: SK-OV-3 ovarian
[51] = test system: HCC-2998 colon
[52] = test system: SN12C renal
[53] = test system: PC-3 prostate
[54] = test system: MDA-N
[55] = test system: BT-549 breast
[56] = test system: MDA-MB-231 breast
[57] = test system: MCF7 breast
[58] = test system: SNB-75 CNS
[59] = test system: T-47D breast
[60] = test system: HS 578T breast
[61] = test system: COLO 205 colon
[62] = test system: DU-145 prostate
[63] = test system: MDA-MB-435
[64] = test system: A498 renal
[65] = test system: NCI/ADR-RES ovarian
[66] = test system: KM20L2 colon
[67] = test system: DMS 273 small cell lung

SMILES: COc1ccc(/C=C(\C(C)=O)C(=O)Nc2ccccc2)cc1
- TGI [1]: > 100 µM
- TGI [2]: > 100 µM
- TGI [3]: > 100 µM
- TGI [4]: > 100 µM
- TGI [5]: > 100 µM
- TGI [6]: > 100 µM
- TGI [7]: > 100 µM
- TGI [8]: > 100 µM
- TGI [9]: > 100 µM
- TGI [10]: > 100 µM
- TGI [11]: > 100 µM
- TGI [12]: > 100 µM
- TGI [13]: > 100 µM
- TGI [14]: > 100 µM
- TGI [15]: > 100 µM
- TGI [16]: > 100 µM
- TGI [17]: > 100 µM
- TGI [18]: > 100 µM
- TGI [19]: > 100 µM
- TGI [20]: > 100 µM
- TGI [21]: > 100 µM
- TGI [22]: > 100 µM
- TGI [23]: > 100 µM
- TGI [24]: > 100 µM
- TGI [25]: > 100 µM
- TGI [26]: > 100 µM
- TGI [27]: > 100 µM
- TGI [28]: > 100 µM
- TGI [29]: > 100 µM
- TGI [30]: > 100 µM
- TGI [31]: > 100 µM
- TGI [32]: > 100 µM
- TGI [33]: > 100 µM
- TGI [34]: > 100 µM
- TGI [35]: > 100 µM
- TGI [36]: > 100 µM
- TGI [37]: > 100 µM
- TGI [38]: > 100 µM
- TGI [39]: > 100 µM
- TGI [40]: > 100 µM
- TGI [41]: > 100 µM
- TGI [42]: > 100 µM
- TGI [43]: > 100 µM
- TGI [44]: > 100 µM
- TGI [45]: > 100 µM
- TGI [46]: > 100 µM
- TGI [47]: > 100 µM
- TGI [48]: > 100 µM
- TGI [49]: > 100 µM
- TGI [50]: > 100 µM
- TGI [51]: > 100 µM
- TGI [52]: > 100 µM

SMILES: COC(=O)/C=C\C(C#N)(C#N)N=Cc1cc(Br)cs1
- TGI [1]: 27.1 µM
- TGI [2]: 32.5 µM
- TGI [3]: 29.3 µM
- TGI [4]: > 71.3 µM
- TGI [5]: 4.86 µM
- TGI [6]: > 100 µM
- TGI [7]: > 100 µM
- TGI [8]: 33 µM
- TGI [9]: 18.3 µM
- TGI [10]: 11 µM
- TGI [11]: 2.9 µM
- TGI [53]: 16 µM
- TGI [13]: 2.72 µM
- TGI [14]: 14.1 µM
- TGI [54]: 6.62 µM
- TGI [15]: > 100 µM
- TGI [17]: 17.4 µM
- TGI [55]: 17.9 µM
- TGI [18]: 13.5 µM
- TGI [19]: 2.38 µM
- TGI [20]: 33 µM
- TGI [56]: 23.3 µM
- TGI [21]: 6.37 µM
- TGI [22]: 16.5 µM
- TGI [23]: 32.4 µM
- TGI [57]: 4.49 µM
- TGI [58]: 29.7 µM
- TGI [59]: 5.07 µM
- TGI [24]: 35.3 µM
- TGI [25]: 8.45 µM
- TGI [60]: 45.1 µM
- TGI [26]: 40.7 µM
- TGI [27]: 4.93 µM
- TGI [29]: 5.38 µM
- TGI [30]: 7.53 µM
- TGI [61]: 3.99 µM
- TGI [31]: 6.48 µM
- TGI [62]: 19.1 µM
- TGI [32]: 20.8 µM
- TGI [33]: 3.72 µM
- TGI [34]: 25.5 µM
- TGI [63]: 8.34 µM
- TGI [36]: 3.78 µM
- TGI [37]: 48 µM
- TGI [38]: 3.47 µM
- TGI [39]: 7.74 µM
- TGI [40]: 31.8 µM
- TGI [42]: 10.4 µM
- TGI [43]: 4.73 µM
- TGI [45]: 5.01 µM
- TGI [46]: 11.1 µM
- TGI [47]: 0.12 µM
- TGI [48]: 4.51 µM
- TGI [49]: 18.7 µM
- TGI [50]: 33.6 µM
- TGI [51]: 30.8 µM
- TGI [64]: 32.9 µM
- TGI [65]: 36.3 µM
- TGI [52]: 7.64 µM

SMILES: Cc1cccc2c1Sc1ccccc1C2NC(=O)CCN(C)C (stereo unspecified)
- TGI [1]: > 100 µM
- TGI [2]: > 100 µM
- TGI [3]: > 100 µM
- TGI [4]: > 100 µM
- TGI [5]: > 100 µM
- TGI [6]: > 100 µM
- TGI [7]: > 100 µM
- TGI [8]: > 100 µM
- TGI [9]: > 100 µM
- TGI [10]: > 100 µM
- TGI [12]: > 100 µM
- TGI [13]: > 100 µM
- TGI [14]: > 100 µM
- TGI [15]: > 100 µM
- TGI [16]: > 100 µM
- TGI [18]: > 100 µM
- TGI [19]: > 100 µM
- TGI [20]: > 100 µM
- TGI [21]: > 100 µM
- TGI [22]: > 100 µM
- TGI [23]: > 100 µM
- TGI [58]: > 100 µM
- TGI [24]: > 100 µM
- TGI [25]: > 100 µM
- TGI [26]: > 100 µM
- TGI [27]: > 100 µM
- TGI [29]: > 100 µM
- TGI [61]: > 100 µM
- TGI [31]: > 100 µM
- TGI [32]: > 100 µM
- TGI [33]: > 100 µM
- TGI [35]: > 100 µM
- TGI [39]: > 100 µM
- TGI [41]: > 100 µM
- TGI [42]: > 100 µM
- TGI [66]: > 100 µM
- TGI [44]: > 100 µM
- TGI [45]: > 100 µM
- TGI [46]: > 100 µM
- TGI [47]: > 100 µM
- TGI [48]: > 100 µM
- TGI [49]: > 100 µM
- TGI [50]: > 100 µM
- TGI [51]: > 100 µM
- TGI [52]: > 100 µM
- TGI [67]: > 100 µM

SMILES: COC1CCCCN1C(=O)c1ccccc1 (stereo unspecified)
- TGI [1]: > 25.3 µM
- TGI [2]: > 25.3 µM
- TGI [3]: > 25.3 µM
- TGI [6]: > 25.3 µM
- TGI [7]: > 25.3 µM
- TGI [9]: > 25.3 µM
- TGI [13]: > 25.3 µM
- TGI [14]: > 25.3 µM
- TGI [15]: > 25.3 µM
- TGI [16]: > 25.3 µM
- TGI [17]: > 25.3 µM
- TGI [18]: > 25.3 µM
- TGI [20]: > 25.3 µM
- TGI [21]: > 25.3 µM
- TGI [22]: > 25.3 µM
- TGI [23]: > 25.3 µM
- TGI [58]: > 25.3 µM
- TGI [24]: > 25.3 µM
- TGI [25]: > 25.3 µM
- TGI [27]: > 25.3 µM
- TGI [29]: > 25.3 µM
- TGI [30]: > 25.3 µM
- TGI [31]: > 25.3 µM
- TGI [32]: > 25.3 µM
- TGI [33]: > 25.3 µM
- TGI [34]: > 25.3 µM
- TGI [36]: > 25.3 µM
- TGI [37]: > 25.3 µM
- TGI [38]: > 25.3 µM
- TGI [41]: > 25.3 µM
- TGI [42]: > 25.3 µM
- TGI [66]: > 25.3 µM
- TGI [43]: > 25.3 µM
- TGI [45]: > 25.3 µM
- TGI [47]: > 25.3 µM
- TGI [48]: > 25.3 µM
- TGI [50]: > 25.3 µM
- TGI [51]: > 25.3 µM
- TGI [52]: > 25.3 µM
